Laboratory results from paper PMC10313671, “Accelerating the prediction and discovery of peptide hydrogels with human-in-the-loop” (Nature Communications, 2023).
Where a SMILES comes first, the peptide text is derived from it.

Tests used:
[1] = Peptide hydrogel formation, vial-inverting method; format: physicochemical; set-up: key to EXP / GELATION: 0: no hydrogel; 1: hydrogel; settings: for State: ultrasonication, standing 48 h; for State / GELATION / hydrogel formation (in words): vial-inverting method; for Concentration: concentration at which the state was recorded: lowest of 30, 60, 90, 120 mM that gave a gel, 120 mM for non-gelating peptides; for GELATION: 1 = hydrogel, 0 = no hydrogel; for hydrogel formation (in words): representative hydrogels pH between 7.0 to 7.5
Experimental: After validating the efficiency of APHC in predicting tetrapeptide hydrogels, we detailed the phase state of 165 synthesized tetrapeptides and the observed assembly behavior in an aqueous solution.
This work defines hydrogel formation as a self-supporting, non-flowing mixture of water and hydrogelator by the vial-inverting method. All purified tetrapeptides were dissolved in ultrapure water (to form a 30 mM solution initially), followed by the stepwise addition of 1 N NaOH solution to adjust the overall aqueous pH to 6.5–8.5. Meanwhile, a short-term ultrasonication treatment was applied after each pH adjustment to facilitate peptide solubilization and speed up peptide self-assembly. […] The mixture was allowed to stand in for another 48 h for complete hydrogelation. Upon the absence of gelation phenomenon during the aforementioned loops, we increased the peptide concentration (60 mM, 90 mM, and 120 mM were selected) and re-started such gelation operation loop to explore their gelation feasibility.

[2] = Transmission electron microscope (negative staining) of peptide assemblies; settings: for Morphology: TEM, negative staining with uranyl acetate, 120 kV; for morphology by TEM (in words): aqueous solution or hydrogel, negative staining
Experimental: We used the negative staining technique to observe the morphologies formed by peptides. A micropipette was used to load 10 μL of sample solution to a carbon-coated copper grid, and we used a piece of filter paper to remove the excess solution. After rinsing the grid with the deionized water, we used uranyl acetate to stain the sample for 1 minute and then rinsed the grid with deionized water again.

[3] = 120 mM peptide (highest tested) in ultrapure water, pH 6.5-8.5 (1 N NaOH), precipitate, sol, suspension = no gel
[4] = 90 mM peptide in ultrapure water, pH 6.5-8.5 (1 N NaOH), no gel at lower concentrations
[5] = 30 mM peptide in ultrapure water, pH adjusted to 6.5-8.5 with 1 N NaOH, concentration raised 30/60/90/120 mM until gelation
[6] = 60 mM peptide in ultrapure water, pH 6.5-8.5 (1 N NaOH), no gel at 30 mM

SMILES | State [1, 3] | Concentration [1] [mM] | GELATION ([1]; peptide concentration 120 mM) | Morphology ([2]; line of the table gives 120 mM) | other results
NCCCC[C@H](NC(=O)[C@H](CCCCN)NC(=O)[C@H](CCC(=O)O)NC(=O)[C@@H](N)CCC(=O)O)C(=O)O [EEKK] (H-EEKK-OH) | sol | 120 | 0 | blank | 
CC(C)C[C@H](N)C(=O)N[C@H](C(=O)N[C@@H](Cc1c[nH]c2ccccc12)C(=O)N[C@@H](Cc1ccccc1)C(=O)O)C(C)C [LVWF] (H-LVWF-OH) |  | 90 |  |  | State [1, 4]: gel; GELATION ([1]; peptide concentration 90 mM): 1; Morphology ([2]; line of the table gives 90 mM): needle
N[C@@H](CS)C(=O)N[C@@H](Cc1c[nH]c2ccccc12)C(=O)N[C@@H](Cc1ccccc1)C(=O)N[C@@H](CO)C(=O)O [CWFS] (H-CWFS-OH) |  | 30 |  |  | State [1, 5]: gel; GELATION ([1]; peptide concentration 30 mM): 1; Morphology ([2]; line of the table gives 30 mM): fibre
CC(C)[C@H](NC(=O)[C@H](C)NC(=O)[C@@H](N)[C@@H](C)O)C(=O)N[C@@H](Cc1ccccc1)C(=O)O [TAVF] (H-TAVF-OH) | gel | 120 | 1 | sheet | 
CSCC[C@H](NC(=O)[C@H](CCSC)NC(=O)[C@H](CCSC)NC(=O)[C@@H](N)CCSC)C(=O)O [MMMM] (H-MMMM-OH) | gel | 120 | 1 | hybrid(sphere+fibre) | 
CC(C)[C@H](N)C(=O)N[C@@H](Cc1ccc(O)cc1)C(=O)N[C@H](C(=O)N[C@@H](Cc1ccccc1)C(=O)O)[C@@H](C)O [VYTF] (H-VYTF-OH) | sol | 120 | 0 | particle | 
CC(C)[C@H](NC(=O)[C@@H](N)Cc1c[nH]c2ccccc12)C(=O)N[C@@H](Cc1ccccc1)C(=O)N[C@@H](Cc1ccc(O)cc1)C(=O)O [WVFY] (H-WVFY-OH) |  | 30 |  |  | State [1, 5]: gel; GELATION ([1]; peptide concentration 30 mM): 1; hydrogel formation (in words) [1]: hydrogels; Morphology ([2]; line of the table gives 30 mM): sheet; morphology by TEM (in words) [2]: interlaced nanosheets
CSCC[C@H](NC(=O)[C@H](Cc1c[nH]c2ccccc12)NC(=O)[C@@H](N)Cc1c[nH]c2ccccc12)C(=O)N[C@@H](Cc1ccccc1)C(=O)O [WWMF] (H-WWMF-OH) | gel | 120 | 1 | rod | 
CC[C@H](C)[C@H](N)C(=O)N[C@H](C(=O)N[C@H](C(=O)N[C@@H](CCCNC(=N)N)C(=O)O)[C@@H](C)CC)[C@@H](C)CC [IIIR] (H-IIIR-OH) | suspension | 120 | 0 | aggregates | 
CC(C)[C@H](N)C(=O)N[C@@H](Cc1ccccc1)C(=O)NCC(=O)N[C@H](C(=O)O)C(C)C [VFGV] (H-VFGV-OH) | sol | 120 | 0 |  | 
CC[C@H](C)[C@H](NC(=O)[C@@H](NC(=O)[C@H](Cc1c[nH]cn1)NC(=O)[C@@H](N)CC(C)C)[C@@H](C)CC)C(=O)O [LHII] (H-LHII-OH) | sol | 120 | 0 | aggregates | 
CSCC[C@H](NC(=O)[C@@H](N)CCCCN)C(=O)N[C@@H](CC(C)C)C(=O)N[C@@H](Cc1ccccc1)C(=O)O [KMLF] (H-KMLF-OH) | suspension | 120 | 0 | aggregates | 
CC[C@H](C)[C@H](N)C(=O)N[C@H](C(=O)N[C@H](C(=O)N[C@H](C(=O)O)[C@@H](C)CC)[C@@H](C)CC)[C@@H](C)CC [IIII] (H-IIII-OH) |  | 30 |  |  | State [1, 5]: gel; GELATION ([1]; peptide concentration 30 mM): 1; Morphology ([2]; line of the table gives 30 mM): needle
CC[C@H](C)[C@H](N)C(=O)N[C@H](C(=O)N[C@H](C(=O)N[C@@H](Cc1ccccc1)C(=O)O)[C@@H](C)CC)C(C)C [IVIF] (H-IVIF-OH) |  | 30 |  |  | State [1, 5]: gel; GELATION ([1]; peptide concentration 30 mM): 1; Morphology ([2]; line of the table gives 30 mM): sphere
C[C@@H](O)[C@H](N)C(=O)N[C@@H](CCCNC(=N)N)C(=O)N[C@@H](Cc1ccccc1)C(=O)N[C@@H](CO)C(=O)O [TRFS] (H-TRFS-OH) | suspension | 120 |  | particle | morphology by TEM (in words) [2]: aggregates with different sizes
CC(C)C[C@H](NC(=O)[C@H](CC(C)C)NC(=O)[C@@H](N)Cc1c[nH]cn1)C(=O)N[C@@H](Cc1ccccc1)C(=O)O [HLLF] (H-HLLF-OH) |  | 90 |  |  | State [1, 4]: gel; GELATION ([1]; peptide concentration 90 mM): 1; Morphology ([2]; line of the table gives 90 mM): sheet
CC(C)C[C@H](NC(=O)[C@H](Cc1c[nH]cn1)NC(=O)[C@@H](N)Cc1ccccc1)C(=O)N[C@@H](Cc1ccccc1)C(=O)O [FHLF] (H-FHLF-OH) |  | 30 |  |  | State [1, 5]: gel; GELATION ([1]; peptide concentration 30 mM): 1; Morphology ([2]; line of the table gives 30 mM): sheet
C[C@H](N)C(=O)N[C@@H](C)C(=O)N[C@@H](C)C(=O)N[C@@H](C)C(=O)O [AAAA] (H-AAAA-OH) | sol | 120 | 0 | blank | 
CC[C@H](C)[C@H](NC(=O)[C@@H](N)CS)C(=O)N[C@@H](Cc1ccc(O)cc1)C(=O)N[C@@H](Cc1ccccc1)C(=O)O [CIYF] (H-CIYF-OH) |  | 60 |  |  | State [1, 6]: gel; GELATION ([1]; peptide concentration 60 mM): 1; Morphology ([2]; line of the table gives 60 mM): fibre
CSCC[C@H](NC(=O)[C@@H](N)CCC(N)=O)C(=O)N[C@H](C(=O)N[C@H](C(=O)O)C(C)C)C(C)C [QMVV] (H-QMVV-OH) | gel | 120 | 1 | aggregates | 
CC[C@H](C)[C@H](NC(=O)[C@@H](NC(=O)[C@@H](NC(=O)[C@@H](N)Cc1c[nH]c2ccccc12)C(C)C)[C@@H](C)CC)C(=O)O [WVII] (H-WVII-OH) |  | 60 |  |  | State [1, 6]: gel; GELATION ([1]; peptide concentration 60 mM): 1; hydrogel formation (in words) [1]: can form hydrogel; Morphology ([2]; line of the table gives 60 mM): fibre
CC(C)[C@H](NC(=O)[C@@H]1CCCN1)C(=O)N[C@@H](Cc1ccccc1)C(=O)N[C@@H](Cc1ccc(O)cc1)C(=O)O [PVFY] (H-PVFY-OH) |  | 30 |  |  | State [1, 5]: gel; GELATION ([1]; peptide concentration 30 mM): 1; Morphology ([2]; line of the table gives 30 mM): needle
O=C(O)[C@H](Cc1ccc(O)cc1)NC(=O)[C@H](Cc1c[nH]c2ccccc12)NC(=O)[C@H](Cc1c[nH]c2ccccc12)NC(=O)[C@@H]1CCCN1 [PWWY] (H-PWWY-OH) | sol | 120 | 0 | aggregates | 
CC(C)C[C@H](N)C(=O)N[C@@H](Cc1ccccc1)C(=O)N[C@@H](Cc1c[nH]c2ccccc12)C(=O)N[C@@H](CO)C(=O)O [LFWS] (H-LFWS-OH) | gel | 120 | 1 | sphere | 
N[C@@H](CO)C(=O)N[C@@H](CO)C(=O)N[C@@H](CO)C(=O)N[C@@H](CO)C(=O)O [SSSS] (H-SSSS-OH) | suspension | 120 | 0 | blank | 
C[C@H](NC(=O)[C@@H](N)CS)C(=O)N[C@@H](Cc1ccc(O)cc1)C(=O)N[C@@H](Cc1c[nH]c2ccccc12)C(=O)O [CAYW] (H-CAYW-OH) | precipitate | 120 | 0 | aggregates | 
CC(C)C[C@H](N)C(=O)N[C@@H](CO)C(=O)N[C@@H](Cc1ccccc1)C(=O)N[C@@H](Cc1c[nH]c2ccccc12)C(=O)O [LSFW] (H-LSFW-OH) |  | 60 |  |  | State [1, 6]: gel; GELATION ([1]; peptide concentration 60 mM): 1; Morphology ([2]; line of the table gives 60 mM): hybrid(sphere+fibre)
C[C@@H](O)[C@H](N)C(=O)N[C@@H](CCC(N)=O)C(=O)N[C@@H](Cc1ccccc1)C(=O)N[C@@H](CO)C(=O)O [TQFS] (H-TQFS-OH) |  |  | 0 |  | 
CC(C)C[C@H](NC(=O)[C@@H](NC(=O)[C@H](Cc1ccccc1)NC(=O)[C@@H](N)CCCCN)C(C)C)C(=O)O [KFVL] (H-KFVL-OH) |  |  | 0 |  | 
CC(C)C[C@H](NC(=O)[C@@H](NC(=O)[C@H](Cc1ccccc1)NC(=O)[C@@H](N)CCCCN)C(C)C)C(=O)O [LYS-PHE-VAL-LEU] (H-KFVL-OH) |  |  |  |  | EXP ([1]; experimental gelation result of the synthesized peptide): 0
